How the values were obtained:
Assay in all cases: Kinase profiling
Format in all cases: biochemical
MTOR = molecular target: T1, MTOR (Homo sapiens, UniProt P42345)
T1 construct: purchased ProQinase (Freiburg, Germany)
Description: (§1) The analysis was performed by ProQinase (Freiburg, Germany).

DAPK2 = molecular target: T2, DAPK2 (Homo sapiens, UniProt Q9UIK4)
T2 construct: purchased ProQinase (Freiburg, Germany)
Description: as §1

TSF1 = molecular target: T3, TSF1 (Homo sapiens, UniProt O75716)
T3 construct: purchased ProQinase (Freiburg, Germany)
T3 sequence (O75716 whole entry): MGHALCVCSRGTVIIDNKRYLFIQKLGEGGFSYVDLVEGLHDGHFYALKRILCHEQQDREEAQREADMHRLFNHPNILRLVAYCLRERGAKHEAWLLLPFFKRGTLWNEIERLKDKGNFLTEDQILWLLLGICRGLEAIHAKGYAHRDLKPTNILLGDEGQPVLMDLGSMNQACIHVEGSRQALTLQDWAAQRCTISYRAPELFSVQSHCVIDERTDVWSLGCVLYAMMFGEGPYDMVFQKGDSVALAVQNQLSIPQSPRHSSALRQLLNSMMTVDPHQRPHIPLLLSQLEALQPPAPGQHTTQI
Description: as §1

IKKalpha = molecular target: T4, IKKalpha (Homo sapiens, UniProt O15111)
T4 construct: purchased ProQinase (Freiburg, Germany)
T4 sequence (O15111 1-745): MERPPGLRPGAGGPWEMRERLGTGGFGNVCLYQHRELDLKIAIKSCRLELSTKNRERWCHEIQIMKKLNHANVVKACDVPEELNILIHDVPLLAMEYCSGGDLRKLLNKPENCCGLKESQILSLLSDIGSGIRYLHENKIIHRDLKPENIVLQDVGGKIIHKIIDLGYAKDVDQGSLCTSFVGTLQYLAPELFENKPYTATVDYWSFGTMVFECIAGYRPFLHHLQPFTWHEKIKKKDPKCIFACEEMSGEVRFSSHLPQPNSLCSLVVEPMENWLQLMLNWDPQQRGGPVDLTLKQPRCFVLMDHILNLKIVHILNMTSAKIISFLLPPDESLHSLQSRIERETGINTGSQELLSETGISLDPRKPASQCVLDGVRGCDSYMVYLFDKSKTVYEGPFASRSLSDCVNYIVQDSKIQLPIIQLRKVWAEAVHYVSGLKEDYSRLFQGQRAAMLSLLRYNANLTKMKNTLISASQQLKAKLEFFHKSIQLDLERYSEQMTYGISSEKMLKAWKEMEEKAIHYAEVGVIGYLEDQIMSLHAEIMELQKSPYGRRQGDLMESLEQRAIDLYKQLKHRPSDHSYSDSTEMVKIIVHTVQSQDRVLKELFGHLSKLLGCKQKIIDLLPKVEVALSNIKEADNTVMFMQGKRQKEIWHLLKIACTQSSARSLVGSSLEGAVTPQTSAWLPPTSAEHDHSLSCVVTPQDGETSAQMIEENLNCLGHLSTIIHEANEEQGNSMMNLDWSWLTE
Description: as §1

FER = molecular target: T5, FER (Homo sapiens, UniProt P16591)
T5 construct: purchased ProQinase (Freiburg, Germany)
T5 sequence (P16591 whole entry): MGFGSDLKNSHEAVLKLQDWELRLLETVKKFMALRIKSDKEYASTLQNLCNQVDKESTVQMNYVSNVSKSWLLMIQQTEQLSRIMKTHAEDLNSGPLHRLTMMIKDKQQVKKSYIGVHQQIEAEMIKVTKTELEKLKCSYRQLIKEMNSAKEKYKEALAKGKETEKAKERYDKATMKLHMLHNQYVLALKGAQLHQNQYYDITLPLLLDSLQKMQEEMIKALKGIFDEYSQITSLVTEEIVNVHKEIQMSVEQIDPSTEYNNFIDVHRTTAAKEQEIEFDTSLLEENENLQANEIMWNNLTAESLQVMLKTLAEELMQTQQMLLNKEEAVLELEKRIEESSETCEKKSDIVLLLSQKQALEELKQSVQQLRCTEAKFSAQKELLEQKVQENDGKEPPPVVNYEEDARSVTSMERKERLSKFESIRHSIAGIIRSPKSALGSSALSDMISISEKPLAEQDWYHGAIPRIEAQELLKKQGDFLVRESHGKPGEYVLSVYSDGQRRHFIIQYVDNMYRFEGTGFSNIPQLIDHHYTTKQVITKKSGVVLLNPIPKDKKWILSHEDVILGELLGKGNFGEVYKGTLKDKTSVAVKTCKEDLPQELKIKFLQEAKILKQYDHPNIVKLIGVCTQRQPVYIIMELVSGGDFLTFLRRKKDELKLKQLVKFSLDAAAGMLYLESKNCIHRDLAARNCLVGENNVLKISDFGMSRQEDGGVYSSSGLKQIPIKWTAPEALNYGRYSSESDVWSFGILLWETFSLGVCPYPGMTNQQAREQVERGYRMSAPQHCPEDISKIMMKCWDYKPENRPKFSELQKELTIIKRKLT
Description: as §1

MAP4K5 = molecular target: T6, MAP4K5 (Homo sapiens, UniProt Q9Y4K4)
T6 construct: purchased ProQinase (Freiburg, Germany)
T6 sequence (Q9Y4K4 whole entry): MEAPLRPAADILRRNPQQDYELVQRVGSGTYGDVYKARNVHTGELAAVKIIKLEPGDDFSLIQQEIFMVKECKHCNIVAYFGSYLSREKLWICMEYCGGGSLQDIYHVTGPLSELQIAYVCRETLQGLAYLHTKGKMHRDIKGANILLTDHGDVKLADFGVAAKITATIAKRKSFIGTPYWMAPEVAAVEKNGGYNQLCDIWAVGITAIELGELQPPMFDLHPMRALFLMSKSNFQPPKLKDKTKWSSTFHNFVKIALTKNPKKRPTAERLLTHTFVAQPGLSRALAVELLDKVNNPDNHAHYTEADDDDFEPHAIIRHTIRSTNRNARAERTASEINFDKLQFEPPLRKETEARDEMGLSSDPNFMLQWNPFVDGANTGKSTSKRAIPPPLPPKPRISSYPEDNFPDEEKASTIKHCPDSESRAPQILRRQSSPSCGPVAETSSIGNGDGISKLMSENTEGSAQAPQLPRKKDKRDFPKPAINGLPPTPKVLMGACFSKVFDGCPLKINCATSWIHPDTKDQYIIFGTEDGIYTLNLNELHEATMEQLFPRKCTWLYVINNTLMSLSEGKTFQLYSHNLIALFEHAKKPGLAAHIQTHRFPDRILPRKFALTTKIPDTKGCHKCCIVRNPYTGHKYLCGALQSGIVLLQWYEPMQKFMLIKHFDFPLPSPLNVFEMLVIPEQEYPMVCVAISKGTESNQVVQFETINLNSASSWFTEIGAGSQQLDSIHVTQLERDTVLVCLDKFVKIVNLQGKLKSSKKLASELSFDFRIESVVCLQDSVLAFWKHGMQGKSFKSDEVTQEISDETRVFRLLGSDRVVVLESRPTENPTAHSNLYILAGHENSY
Description: as §1

ALK = molecular target: T7, ALK (Homo sapiens, UniProt Q9UM73)
T7 construct: purchased ProQinase (Freiburg, Germany)
Description: as §1

TBK1 = molecular target: T8, TBK1 (Homo sapiens, UniProt Q9UHD2)
T8 construct: purchased ProQinase (Freiburg, Germany)
T8 sequence (Q9UHD2 1-729): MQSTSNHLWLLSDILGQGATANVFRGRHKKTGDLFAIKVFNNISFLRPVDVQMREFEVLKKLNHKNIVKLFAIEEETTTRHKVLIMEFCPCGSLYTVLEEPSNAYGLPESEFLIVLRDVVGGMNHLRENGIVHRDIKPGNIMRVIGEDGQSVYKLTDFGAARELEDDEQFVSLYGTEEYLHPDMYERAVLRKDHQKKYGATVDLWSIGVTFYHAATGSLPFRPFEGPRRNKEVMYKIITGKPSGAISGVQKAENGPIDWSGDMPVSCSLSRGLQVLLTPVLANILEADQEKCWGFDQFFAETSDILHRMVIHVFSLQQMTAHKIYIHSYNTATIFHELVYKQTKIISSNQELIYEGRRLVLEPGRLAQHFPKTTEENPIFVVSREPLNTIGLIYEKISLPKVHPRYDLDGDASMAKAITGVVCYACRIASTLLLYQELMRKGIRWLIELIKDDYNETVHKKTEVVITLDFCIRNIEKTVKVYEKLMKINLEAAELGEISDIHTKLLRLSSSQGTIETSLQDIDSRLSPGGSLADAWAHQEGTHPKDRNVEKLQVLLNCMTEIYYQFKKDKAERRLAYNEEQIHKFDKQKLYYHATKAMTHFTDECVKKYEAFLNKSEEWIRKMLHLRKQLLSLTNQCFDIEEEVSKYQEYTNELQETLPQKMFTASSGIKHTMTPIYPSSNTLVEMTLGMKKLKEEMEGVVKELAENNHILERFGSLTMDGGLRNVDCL
Description: as §1

RPS6KA1 = molecular target: T9, RPS6KA1 (Homo sapiens, UniProt Q15418)
T9 construct: purchased ProQinase (Freiburg, Germany)
T9 sequence (Q15418 whole entry): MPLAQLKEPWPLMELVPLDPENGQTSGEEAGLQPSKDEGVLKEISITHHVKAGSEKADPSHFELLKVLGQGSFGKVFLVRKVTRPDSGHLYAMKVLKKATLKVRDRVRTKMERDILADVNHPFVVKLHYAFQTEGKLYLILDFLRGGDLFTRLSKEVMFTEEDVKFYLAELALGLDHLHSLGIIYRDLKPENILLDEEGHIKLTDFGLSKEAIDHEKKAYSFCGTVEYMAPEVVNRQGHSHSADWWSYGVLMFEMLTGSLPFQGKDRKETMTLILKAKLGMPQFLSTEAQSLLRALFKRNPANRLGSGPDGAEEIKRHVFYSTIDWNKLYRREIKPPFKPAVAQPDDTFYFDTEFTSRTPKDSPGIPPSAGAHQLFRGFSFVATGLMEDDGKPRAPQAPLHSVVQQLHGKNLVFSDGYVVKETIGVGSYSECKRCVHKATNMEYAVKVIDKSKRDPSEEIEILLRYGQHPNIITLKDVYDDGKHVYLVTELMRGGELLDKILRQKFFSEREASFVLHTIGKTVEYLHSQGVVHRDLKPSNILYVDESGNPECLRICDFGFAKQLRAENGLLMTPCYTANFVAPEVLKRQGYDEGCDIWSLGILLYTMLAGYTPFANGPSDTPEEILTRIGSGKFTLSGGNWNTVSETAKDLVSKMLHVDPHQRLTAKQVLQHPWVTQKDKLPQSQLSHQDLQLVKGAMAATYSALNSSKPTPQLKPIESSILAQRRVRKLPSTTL
Description: as §1

ERBB2 = molecular target: T10, ERBB2 (Homo sapiens, UniProt P04626)
T10 construct: purchased ProQinase (Freiburg, Germany)
T10 sequence (P04626 23-1255): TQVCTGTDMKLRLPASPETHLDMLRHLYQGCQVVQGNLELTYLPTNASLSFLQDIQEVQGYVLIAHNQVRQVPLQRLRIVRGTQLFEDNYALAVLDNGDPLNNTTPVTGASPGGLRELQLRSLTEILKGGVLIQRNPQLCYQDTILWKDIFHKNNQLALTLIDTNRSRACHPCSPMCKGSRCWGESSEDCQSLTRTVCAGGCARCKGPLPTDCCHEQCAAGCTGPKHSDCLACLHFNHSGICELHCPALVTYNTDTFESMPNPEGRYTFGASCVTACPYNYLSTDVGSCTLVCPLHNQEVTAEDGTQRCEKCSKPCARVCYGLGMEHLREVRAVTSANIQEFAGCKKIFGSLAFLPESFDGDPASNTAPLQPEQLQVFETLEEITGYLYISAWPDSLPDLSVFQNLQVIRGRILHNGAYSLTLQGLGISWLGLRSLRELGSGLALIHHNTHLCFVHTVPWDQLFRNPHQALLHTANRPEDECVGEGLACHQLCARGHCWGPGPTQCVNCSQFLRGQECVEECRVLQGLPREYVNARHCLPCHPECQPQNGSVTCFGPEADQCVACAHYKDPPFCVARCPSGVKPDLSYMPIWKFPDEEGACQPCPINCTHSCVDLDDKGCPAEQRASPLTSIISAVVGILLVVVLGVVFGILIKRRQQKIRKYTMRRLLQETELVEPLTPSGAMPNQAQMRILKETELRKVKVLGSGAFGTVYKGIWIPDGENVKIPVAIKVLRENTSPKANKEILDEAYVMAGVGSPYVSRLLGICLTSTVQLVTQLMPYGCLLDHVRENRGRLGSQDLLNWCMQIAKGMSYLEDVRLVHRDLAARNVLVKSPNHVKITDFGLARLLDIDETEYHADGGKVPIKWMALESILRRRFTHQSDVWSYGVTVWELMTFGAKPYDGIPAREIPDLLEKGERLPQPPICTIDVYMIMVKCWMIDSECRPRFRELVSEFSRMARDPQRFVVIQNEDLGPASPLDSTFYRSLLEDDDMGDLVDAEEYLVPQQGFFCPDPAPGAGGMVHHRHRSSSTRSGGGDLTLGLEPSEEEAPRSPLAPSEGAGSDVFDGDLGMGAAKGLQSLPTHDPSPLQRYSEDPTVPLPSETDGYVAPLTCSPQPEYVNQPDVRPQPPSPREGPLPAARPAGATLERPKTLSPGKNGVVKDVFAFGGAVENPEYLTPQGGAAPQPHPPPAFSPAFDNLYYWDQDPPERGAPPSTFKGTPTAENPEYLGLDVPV
Description: as §1

PIM2 = molecular target: T11, PIM2 (Homo sapiens, UniProt Q9P1W9)
T11 construct: purchased ProQinase (Freiburg, Germany)
Description: as §1

MLK4 = molecular target: T12, MLK4 (Homo sapiens, UniProt Q5TCX8)
T12 construct: purchased ProQinase (Freiburg, Germany)
T12 sequence (Q5TCX8 whole entry): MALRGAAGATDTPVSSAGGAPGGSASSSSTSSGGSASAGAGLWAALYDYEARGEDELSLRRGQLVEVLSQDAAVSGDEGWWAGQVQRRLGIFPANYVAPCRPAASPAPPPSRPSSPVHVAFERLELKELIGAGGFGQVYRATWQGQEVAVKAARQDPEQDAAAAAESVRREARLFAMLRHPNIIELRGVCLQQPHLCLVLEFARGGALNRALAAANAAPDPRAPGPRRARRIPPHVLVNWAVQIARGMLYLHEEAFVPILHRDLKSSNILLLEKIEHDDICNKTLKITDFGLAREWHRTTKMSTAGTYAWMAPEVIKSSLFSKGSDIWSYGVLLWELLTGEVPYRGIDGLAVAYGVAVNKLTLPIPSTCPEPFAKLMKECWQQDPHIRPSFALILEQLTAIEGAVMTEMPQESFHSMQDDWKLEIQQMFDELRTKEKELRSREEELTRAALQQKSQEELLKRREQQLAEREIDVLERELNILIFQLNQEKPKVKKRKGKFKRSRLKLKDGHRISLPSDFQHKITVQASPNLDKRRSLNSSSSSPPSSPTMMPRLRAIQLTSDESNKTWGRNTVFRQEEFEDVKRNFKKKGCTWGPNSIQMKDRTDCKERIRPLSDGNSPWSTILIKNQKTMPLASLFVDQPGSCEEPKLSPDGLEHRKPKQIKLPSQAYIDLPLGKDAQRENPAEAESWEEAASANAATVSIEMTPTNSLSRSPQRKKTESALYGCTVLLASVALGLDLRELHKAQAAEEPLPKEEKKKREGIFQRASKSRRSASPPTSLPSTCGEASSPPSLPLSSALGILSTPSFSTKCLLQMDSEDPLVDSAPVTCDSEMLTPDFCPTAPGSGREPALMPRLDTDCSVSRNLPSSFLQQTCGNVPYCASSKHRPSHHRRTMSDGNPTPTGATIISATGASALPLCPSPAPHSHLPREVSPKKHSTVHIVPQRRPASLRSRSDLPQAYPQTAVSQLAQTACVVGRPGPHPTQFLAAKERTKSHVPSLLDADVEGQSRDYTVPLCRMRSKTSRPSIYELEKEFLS
Description: as §1

| Compound | Residual activity (MTOR; 1.0E-05 M) | Residual activity (MTOR; 1.0E-06 M) | Residual activity (DAPK2; 1.0E-05 M) | Residual activity (DAPK2; 1.0E-06 M) | Residual activity (TSF1; 1.0E-05 M) | Residual activity (TSF1; 1.0E-06 M) | Residual activity (IKKalpha; 1.0E-05 M) | Residual activity (IKKalpha; 1.0E-06 M) | Residual activity (FER; 1.0E-05 M) | Residual activity (FER; 1.0E-06 M) | Residual activity (MAP4K5; 1.0E-05 M) | Residual activity (MAP4K5; 1.0E-06 M) | Residual activity (ALK; 1.0E-05 M) | Residual activity (ALK; 1.0E-06 M) | Residual activity (TBK1; 1.0E-05 M) | Residual activity (TBK1; 1.0E-06 M) | Residual activity (RPS6KA1; 1.0E-05 M) | Residual activity (RPS6KA1; 1.0E-06 M) | Residual activity (ERBB2; 1.0E-05 M) | Residual activity (ERBB2; 1.0E-06 M) | further results |
| --- | --- | --- | --- | --- | --- | --- | --- | --- | --- | --- | --- | --- | --- | --- | --- | --- | --- | --- | --- | --- | --- |
| O=C(Nc1ccc(F)c(Nc2ccc3c(c2)CCCCC3=O)c1)c1cccc(F)c1 [Compound 109] | 94 % of control | 94 % of control | 133 % of control | 110 % of control | 94 % of control | 97 % of control | 93 % of control | 104 % of control | 90 % of control | 110 % of control | 92 % of control | 92 % of control | 92 % of control | 95 % of control | 93 % of control | 93 % of control | 95 % of control | 96 % of control | 86 % of control | 99 % of control | Residual activity (PIM2; 1.0E-05 M): 86 % of control; Residual activity (PIM2; 1.0E-06 M): 100 % of control; Residual activity (MLK4; 1.0E-05 M): 99 % of control; Residual activity (MLK4; 1.0E-06 M): 99 % of control |
| O=C(Cc1ccccc1)Nc1ccc(F)c(Nc2ccc3c(c2)CCCCC3=O)c1 [Compound 100] | 92 % of control | 93 % of control | 124 % of control | 113 % of control | 88 % of control | 107 % of control | 102 % of control | 102 % of control | 94 % of control | 101 % of control | 94 % of control | 98 % of control | 72 % of control | 86 % of control | 101 % of control | 103 % of control | 96 % of control | 110 % of control | 79 % of control | 96 % of control | Residual activity (PIM2; 1.0E-05 M): 92 % of control; Residual activity (PIM2; 1.0E-06 M): 109 % of control; Residual activity (MLK4; 1.0E-05 M): 102 % of control; Residual activity (MLK4; 1.0E-06 M): 94 % of control |

Source: paper PMC9030254, “Target Hopping from Protein Kinases to PXR: Identification of Small-Molecule Protein Kinase Inhibitors as Selective Modulators of Pregnane X Receptor from TüKIC Library” (Cells, 2022)
